Where a name gives a salt, the structure may show the parent alone.
Key:
c-Cbl = c-Cbl (Homo sapiens (Human), UniProt P22681); assay: C-Cbl LCK Ub TR-FRET assay (c-cbl Lck HTRF); format: biochemical; conditions: for (fold-selectivity): C-cbl Lck HTRF IC50 relative to Cbl-b Lck HTRF IC50
How it was run: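 Signal is read once the detection mix has stood 20 min at ambient temperature. Curves are anchored by DMSO as maximum and by omission of LCK as minimum.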

Cbl-b = Cbl-b (Homo sapiens (Human), UniProt Q13191); assay: Cbl-b LCK Ub TR-FRET assay (Cbl-b Lck HTRF); format: biochemical
Sequence of Cbl-b (Q13191 40-426): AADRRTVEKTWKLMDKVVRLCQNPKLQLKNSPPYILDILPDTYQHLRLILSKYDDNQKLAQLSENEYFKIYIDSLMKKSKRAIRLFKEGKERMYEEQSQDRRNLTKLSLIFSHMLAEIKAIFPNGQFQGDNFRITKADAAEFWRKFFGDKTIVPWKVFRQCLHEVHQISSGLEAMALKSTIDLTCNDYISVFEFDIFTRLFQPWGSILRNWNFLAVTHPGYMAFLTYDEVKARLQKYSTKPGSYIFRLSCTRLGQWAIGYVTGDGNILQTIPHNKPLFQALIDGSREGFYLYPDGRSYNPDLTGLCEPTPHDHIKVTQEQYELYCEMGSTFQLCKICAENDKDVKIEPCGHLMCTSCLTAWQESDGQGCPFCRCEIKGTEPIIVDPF
How it was run: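 TR-FRET (340 nm excitation, 615/665 nm emission) read after adding HA-ubiquitin–UBE2D2 thioester, anti-HA-D2 and streptavidin-Eu. Beforehand, compounds incubated 60 min with biotinylated Cbl-b, then 90 min with His-LCK and ATP (1 mM in 2× mix); IC50 from 10 concentrations, DMSO high and no-LCK low controls.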

Sequence of c-Cbl (P22681 47-435): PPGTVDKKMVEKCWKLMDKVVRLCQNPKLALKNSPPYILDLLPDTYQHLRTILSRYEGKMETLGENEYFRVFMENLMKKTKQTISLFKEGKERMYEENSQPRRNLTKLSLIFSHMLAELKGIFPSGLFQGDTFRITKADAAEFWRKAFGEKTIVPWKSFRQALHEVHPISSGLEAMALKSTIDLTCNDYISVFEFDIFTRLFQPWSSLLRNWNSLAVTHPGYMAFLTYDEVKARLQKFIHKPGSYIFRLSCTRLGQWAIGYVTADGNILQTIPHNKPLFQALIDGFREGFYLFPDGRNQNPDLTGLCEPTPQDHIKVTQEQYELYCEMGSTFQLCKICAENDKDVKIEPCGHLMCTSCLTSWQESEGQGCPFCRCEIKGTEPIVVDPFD

SMILES	IC50 (c-Cbl) [nM]	(fold-selectivity) (c-Cbl)	IC50 (Cbl-b) [nM]
CCNc1cc(N2Cc3c(cc(CNCC4CC4)cc3C(F)(F)F)C2=O)cc(C2(Cc3nncn3C)CCC2)c1 [Compound 457, 6-(((cyclopropylmethyl)amino)methyl)-2-(3-(ethylamino)-5-(1-((4-methyl-4H-1,2,4-triazol-3-yl)methyl)cyclobutyl)phenyl)-4-(trifluoromethyl)isoindolin-1-one]	12	(0.71x)	17
Cn1cnnc1CC1(c2cccc(N3Cc4c(cc(CNC56CC(C)(C5)C6)cc4C(F)(F)F)C3=O)c2)CC(F)(F)C1 [Compound 354, 2-(3-(3,3-difluoro-1-((4-methyl-4H-1,2,4-triazol-3-yl)methyl)cyclobutyl)phenyl)-6-(((3-methylbicyclo[1.1.1]pentan-1-yl)amino)methyl)-4-(trifluoromethyl)isoindolin-1-one formate]	7	–	13
CN1CCN(Cc2cc3c(c(C(F)(F)F)c2)CN(c2cccc(C4(Cc5nncn5C)CC(F)(F)C4)c2)C3=O)CC1C1CC1 (stereo not drawn) [Compound 403, 6-((3-cyclopropyl-4-methylpiperazin-1-yl)methyl)-2-(3-(3,3-difluoro-1-((4-methyl-4H-1,2,4-triazol-3-yl)methyl)cyclobutyl)phenyl)-4-(trifluoromethyl)isoindolin-1-one]	45	(1.0x)	45
CC(C)Nc1cc(N2Cc3c(cc(CN4CCN(C)C[C@@H]4C(C)C)cc3C(F)(F)F)C2=O)cc(C2(Cc3nncn3C)CCC2)c1 [Compound 408, (S)-6-((2-isopropyl-4-methylpiperazin-1-yl)methyl)-2-(3-(isopropylamino)-5-(1-((4-methyl-4H-1,2,4-triazol-3-yl)methyl)cyclobutyl)phenyl)-4-(trifluoromethyl)isoindolin-1-one]	9.1	(0.68x)	13
Cc1cn[nH]c1C(F)C1(c2cccc(N3Cc4c(cc(CN5CCN(C)C[C@@H]5C(C)C)cc4C(F)(F)F)C3=O)c2)COC1 (stereo partly drawn) [Compound 237, 2-(3-(3-(fluoro(4-methyl-1H-pyrazol-5-yl)methyl)oxetan-3-yl)-phenyl)-6-(((S)-2-isopropyl-4-methylpiperazin-1-yl)methyl)-4-(trifluoromethyl)isoindolin-1-one]	180	(1.8x)	100
CC[C@H]1CN(C)CCN1Cc1cc2c(c(C(F)(F)F)c1)CN(c1cccc(C3(Cc4nncn4C)CC(F)(F)C3)c1)C2=O [Compound 434, (S)-2-(3-(3,3-difluoro-1-((4-methyl-4H-1,2,4-triazol-3-yl)methyl)cyclobutyl)phenyl)-6-((2-ethyl-4-methylpiperazin-1-yl)methyl)-4-(trifluoromethyl)isoindolin-1-one]	17	(0.95x)	18
Cn1cnnc1CC1(c2cc(CCC(C)(C)C)nc(N3Cc4c(cc(CNC5(C)CCC5)cc4C(F)(F)F)C3=O)c2)CCC1 [Compound 322, 2-(6-(3,3-dimethylbutyl)-4-(1-((4-methyl-4H-1,2,4-triazol-3-yl)methyl)cyclobutyl)pyridin-2-yl)-6-(((1-methylcyclobutyl)amino)methyl)-4-(trifluoromethyl)isoindolin-1-one]	34	(1.2x)	27
Cn1cnnc1[C@H](F)C1(c2cccc(N3Cc4c(cc(CN5CC(O)(C6CC6)C5)cc4C(F)(F)F)C3=O)c2)COC1 [Compound 173, (R)-6-((3-cyclopropyl-3-hydroxyazetidin-1-yl)methyl)-2-(3-(3-(fluoro(4-methyl-4H-1,2,4-triazol-3-yl)methyl)oxetan-3-yl)phenyl)-4-(trifluoromethyl)isoindolin-1-one]	83	1.3x	63
Cn1cnnc1[C@H](F)C1(c2cccc(N3Cc4c(cc(CN)cc4C(F)(F)F)C3=O)c2)CCC1 [Compound 386, (R)-6-(aminomethyl)-2-(3-(1-(fluoro(4-methyl-4H-1,2,4-triazol-3-yl)methyl)cyclobutyl)phenyl)-4-(trifluoromethyl)isoindolin-1-one]	31	(0.98x)	32
Cc1cn(CC2(c3cccc(N4Cc5c(cc(CN6CCN(C)C[C@@H]6C(C)C)cc5C(F)(F)F)C4=O)c3)COC2)nn1 [Compound 257, (S)-6-((2-isopropyl-4-methylpiperazin-1-yl)methyl)-2-(3-(3-((4-methyl-1H-1,2,3-triazol-1-yl)methyl)oxetan-3-yl)phenyl)-4-(trifluoromethyl)isoindolin-1-one]	20000	(1.6x)	13000
Cn1cnnc1CC1(c2cc(NCCc3c[nH]c4ccccc34)nc(N3Cc4c(cc(CNC5(C)CCC5)cc4C(F)(F)F)C3=O)c2)CCC1 [Compound 316, 2-(6-((2-(1H-indol-3-yl)ethyl)amino)-4-(1-((4-methyl-4H-1,2,4-triazol-3-yl)methyl)cyclobutyl)pyridin-2-yl)-6-(((1-methylcyclobutyl)amino)methyl)-4-(trifluoromethyl)isoindolin-1-one]	20	(1.2x)	16
Cn1cnnc1CC1(c2cc(NCC(N)=O)nc(N3Cc4c(cccc4C(F)(F)F)C3=O)c2)COC1 [Compound 491, 2-((4-(3-((4-methyl-4H-1,2,4-triazol-3-yl)methyl)oxetan-3-yl)-6-(1-oxo-4-(trifluoromethyl)isoindolin-2-yl)pyridin-2-yl)amino)acetamide]	20000	(2.3x)	8600
CC(C)[C@@H]1CNCCN1Cc1cc2c(c(C(F)(F)F)c1)CN(c1cccc(C3([C@H](F)c4nncn4C)COC3)c1)C2=O [Compound 95, 2-(3-(3-((S)-fluoro(4-methyl-4H-1,2,4-triazol-3-yl)methyl)oxetan-3-yl)phenyl)-6-(((R)-2-isopropylpiperazin-1-yl)methyl)-4-(trifluoromethyl)isoindolin-1-one]	410	1.5x	270
CCNc1cc(C2(Cc3nncn3C)CC(F)(F)C2)cc(N2Cc3c(cc(CN4CCN(C)C[C@@H]4C(C)C)cc3C(F)(F)F)C2=O)n1 [Compound 236, (S)-2-(4-(3,3-difluoro-1-((4-methyl-4H-1,2,4-triazol-3-yl)methyl)-cyclobutyl)-6-(ethylamino)pyridin-2-yl)-6-((2-isopropyl-4-methylpiperazin-1-yl)methyl)-4-(trifluoromethyl)isoindolin-1-one formate]	8	–	7.1
CO[C@H]1CCN(Cc2cc3c(c(C(F)(F)F)c2)CN(c2cccc(C4([C@@H](F)c5nncn5C)COC4)c2)C3=O)C1 [Compound 131, 2-(3-(3-((R)-fluoro(4-methyl-4H-1,2,4-triazol-3-yl)methyl)oxetan-3-yl)phenyl)-6-(((S)-3-methoxypyrrolidin-1-yl)methyl)-4-(trifluoromethyl)isoindolin-1-one]	170	2.9x	59
Cn1cnnc1CC1(c2cccc(N3Cc4c(cc(CNC5(C)CCCC5)cc4C(F)(F)F)C3=O)c2)CC(F)(F)C1 [Compound 344, 2-(3-(3,3-difluoro-1-((4-methyl-4H-1,2,4-triazol-3-yl)methyl)cyclobutyl)phenyl)-6-(((1-methylcyclopentyl)amino)methyl)-4-(trifluoromethyl)isoindolin-1-one formate]	13	–	16
Cn1cnnc1[C@H](F)C1(c2cccc(N3Cc4c(cc([C@@H](N)C5CCC5)cc4C(F)(F)F)C3=O)c2)COC1 [Compound 391, 6-((S)-amino(cyclobutyl)methyl)-2-(3-(3-((R)-fluoro(4-methyl-4H-1,2,4-triazol-3-yl)methyl)oxetan-3-yl)phenyl)-4-(trifluoromethyl)isoindolin-1-one]	63	(1.9x)	33
Cn1cnnc1[C@H](F)C1(c2cccc(N3Cc4c(cc(CN5CC[C@H](F)C5)cc4C(F)(F)F)C3=O)c2)COC1 [Compound 82, 2-(3-(3-((R)-fluoro(4-methyl-4H-1,2,4-triazol-3-yl)methyl)oxetan-3-yl)phenyl)-6-(((S)-3-fluoropyrrolidin-1-yl)methyl)-4-(trifluoromethyl)isoindolin-1-one]	68	2.4x	28
Cn1cnnc1CC1(c2cc(NC3CCCC3)nc(N3Cc4c(cccc4C(F)(F)F)C3=O)c2)CCC1 [Compound 296, 2-(6-(cyclopentylamino)-4-(1-((4-methyl-4H-1,2,4-triazol-3-yl)methyl)cyclobutyl)pyridin-2-yl)-4-(trifluoromethyl)isoindolin-1-one]	2500	(5.7x)	440
Cn1cnnc1[C@H](F)C1(c2cccc(N3Cc4c(cc(CN5CC(S(C)(=O)=O)C5)cc4C(F)(F)F)C3=O)c2)COC1 [Compound 163, (R)-2-(3-(3-(fluoro(4-methyl-4H-1,2,4-triazol-3-yl)methyl)oxetan-3-yl)phenyl)-6-((3-(methylsulfonyl)azetidin-1-yl)methyl)-4-(trifluoromethyl)isoindolin-1-one]	240	1.9x	130
Cn1cnnc1[C@@H](F)C1(c2cccc(N3Cc4c(cc(CN5CC(C)(CO)C5)cc4C(F)(F)F)C3=O)c2)COC1 [Compound 75, (S)-2-(3-(3-(fluoro(4-methyl-4H-1,2,4-triazol-3-yl)methyl)oxetan-3-yl)phenyl)-6((3-(hydroxymethyl)-3-methylazetidin-1-yl)methyl)-4-(trifluoromethyl)isoindolin-1-one]	580	2.3x	250
